From PubChem BioAssay AID1919007 (Molecular Pharmacology Branch, DTP, NCI, 2023)

System: A498 complex spheroids with HUVEC/MSC, growth
Experiment: Anticancer human tumor A498 cell line growth inhibition [AhR];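 also: seven day exposure starting three days after spheroid seeding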;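 as to viability, T/C: luminescence signal used as a surrogate for viable cells; luminescence viability scaled so 100% equals DMSO vehicle wells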
Settings: for IC50: curve of first compound; for viability, T/C: stronger effect = lower value
How it was run: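 Spheroids combined tumor cells with HUVEC endothelial cells and human MSCs as stroma. AhR antagonists were paired with standard or investigational drugs, each dosed in half-log steps down from near clinical Cmax, or from 10 microM where Cmax was unknown.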

[1] = second compound 0.1 µM, first compound 0.0316 µM
[2] = second compound 0.1 µM, first compound 0.1 µM
[3] = second compound 0.316 µM, first compound 0.0316 µM
[4] = second compound 0.316 µM, first compound 0.1 µM
[5] = second compound 1 µM, first compound 0.0316 µM
[6] = second compound 1 µM, first compound 0.1 µM
[7] = second compound 3.16 µM, first compound 0.0316 µM
[8] = second compound 3.16 µM, first compound 0.1 µM
[9] = second compound 10 µM, first compound 0.0316 µM
[10] = second compound 10 µM, first compound 0.1 µM

Work on `Nc1ncn(C2CC(O)C(CO)S2)c(=O)n1` (stereo not given) + Cc1ccccc1N=Nc1ccc(NC(=O)c2ccnn2C)c(C)c1 yielded an IC50 (second compound 0.1 µM) greater than 300 nM, an IC50 (second compound 0.316 µM) greater than 300 nM and an IC50 (second compound 1 µM) greater than 300 nM. The IC50 (second compound 3.16 µM) was greater than 300 nM, the IC50 (second compound 10 µM) was greater than 300 nM and the viability, T/C (second compound 0.1 µM, first compound 0.000949 µM) was 93.5%. The viability, T/C (second compound 0.1 µM, first compound 0.003 µM) was 97.4%, the viability, T/C (second compound 0.1 µM, first compound 0.00949 µM) was 101% and the viability, T/C (second compound 0.1 µM, first compound 0.03 µM) was 89.8%. It also gave a viability, T/C (second compound 0.1 µM, first compound 0.0949 µM) of 89.9%, a viability, T/C (second compound 0.1 µM, first compound 0.3 µM) of 76.8% and a viability, T/C (second compound 0.316 µM, first compound 0.000949 µM) of 98.2%. For the same compound, the viability, T/C (second compound 0.316 µM, first compound 0.003 µM) was 101%, the viability, T/C (second compound 0.316 µM, first compound 0.00949 µM) was 93.3% and the viability, T/C (second compound 0.316 µM, first compound 0.03 µM) was 91.6%. For the same compound, the viability, T/C (second compound 0.316 µM, first compound 0.0949 µM) was 88.5%, the viability, T/C (second compound 0.316 µM, first compound 0.3 µM) was 78.1% and the viability, T/C (second compound 1 µM, first compound 0.000949 µM) was 92%. The viability, T/C (second compound 1 µM, first compound 0.003 µM) was 93.1%, the viability, T/C (second compound 1 µM, first compound 0.00949 µM) was 91.7% and the viability, T/C (second compound 1 µM, first compound 0.03 µM) was 89.2%. The viability, T/C (second compound 1 µM, first compound 0.0949 µM) was 79.6%, the viability, T/C (second compound 1 µM, first compound 0.3 µM) was 80.9% and the viability, T/C (second compound 3.16 µM, first compound 0.000949 µM) was 89.8%. The viability, T/C (second compound 3.16 µM, first compound 0.003 µM) was 94.2%, the viability, T/C (second compound 3.16 µM, first compound 0.00949 µM) was 97.4% and the viability, T/C (second compound 3.16 µM, first compound 0.03 µM) was 79.3%. The viability, T/C (second compound 3.16 µM, first compound 0.0949 µM) was 77.5%, the viability, T/C (second compound 3.16 µM, first compound 0.3 µM) was 71.3% and the viability, T/C (second compound 10 µM, first compound 0.000949 µM) was 88.2%. It also gave a viability, T/C (second compound 10 µM, first compound 0.003 µM) of 89%, a viability, T/C (second compound 10 µM, first compound 0.00949 µM) of 87.8% and a viability, T/C (second compound 10 µM, first compound 0.03 µM) of 89.1%. For the same compound, the viability, T/C (second compound 10 µM, first compound 0.0949 µM) was 80.8% and the viability, T/C (second compound 10 µM, first compound 0.3 µM) was 75.7%.

For `CC[C@@]1(O)C(=O)OCc2c1cc1n(c2=O)Cc2cc3c(CN(C)C)c(O)ccc3nc2-1` + Cc1cncc(-c2nc(NCCc3c[nH]c4ccccc34)c3ncn(C(C)C)c3n2)c1, the IC50 (second compound 0.1 µM) was greater than 100 nM, the IC50 (second compound 0.316 µM) was greater than 100 nM and the IC50 (second compound 1 µM) was greater than 100 nM. For the same compound, the IC50 (second compound 3.16 µM) was greater than 100 nM, the IC50 (second compound 10 µM) was less than 0.316 nM and the viability, T/C (second compound 0.1 µM, first compound 0.000316 µM) was 87.4%. It also gave a viability, T/C (second compound 0.1 µM, first compound 0.001 µM) of 92.5%, a viability, T/C (second compound 0.1 µM, first compound 0.00316 µM) of 90.1% and a viability, T/C (second compound 0.1 µM, first compound 0.01 µM) of 84.7%. It also gave a viability, T/C [1] of 72.9%, a viability, T/C [2] of 69.8% and a viability, T/C (second compound 0.316 µM, first compound 0.000316 µM) of 88.7%. For the same compound, the viability, T/C (second compound 0.316 µM, first compound 0.001 µM) was 92.2%, the viability, T/C (second compound 0.316 µM, first compound 0.00316 µM) was 91.1% and the viability, T/C (second compound 0.316 µM, first compound 0.01 µM) was 83.1%. For the same compound, the viability, T/C [3] was 83.3%, the viability, T/C [4] was 72.9% and the viability, T/C (second compound 1 µM, first compound 0.000316 µM) was 89.2%. The viability, T/C (second compound 1 µM, first compound 0.001 µM) was 92.5%, the viability, T/C (second compound 1 µM, first compound 0.00316 µM) was 98.3% and the viability, T/C (second compound 1 µM, first compound 0.01 µM) was 76.5%. For the same compound, the viability, T/C [5] was 77%, the viability, T/C [6] was 66.6% and the viability, T/C (second compound 3.16 µM, first compound 0.000316 µM) was 61.4%. It also gave a viability, T/C (second compound 3.16 µM, first compound 0.001 µM) of 72.9%, a viability, T/C (second compound 3.16 µM, first compound 0.00316 µM) of 65.8% and a viability, T/C (second compound 3.16 µM, first compound 0.01 µM) of 60.5%. The viability, T/C [7] was 56.5%, the viability, T/C [8] was 53.1% and the viability, T/C (second compound 10 µM, first compound 0.000316 µM) was 4.54%. It also gave a viability, T/C (second compound 10 µM, first compound 0.001 µM) of 6%, a viability, T/C (second compound 10 µM, first compound 0.00316 µM) of 7.18% and a viability, T/C (second compound 10 µM, first compound 0.01 µM) of 5.32%. For the same compound, the viability, T/C [9] was 6.79% and the viability, T/C [10] was 8.73%.

With `NS(=O)(=O)OCC1CC(n2ccc3c(NC4CCc5ccccc54)ncnc32)CC1O` (stereo not given) + Cc1cncc(-c2nc(NCCc3c[nH]c4ccccc34)c3ncn(C(C)C)c3n2)c1 the IC50 (second compound 0.1 µM) was 448 nM, the IC50 (second compound 0.316 µM) was 412 nM and the IC50 (second compound 1 µM) was 244 nM. It also gave an IC50 (second compound 3.16 µM) of less than 31.6 nM, an IC50 (second compound 10 µM) of less than 31.6 nM and a viability, T/C [1] of 87.5%. It also gave a viability, T/C [2] of 86.2%, a viability, T/C (second compound 0.1 µM, first compound 0.316 µM) of 55.5% and a viability, T/C (second compound 0.1 µM, first compound 1 µM) of 33.3%. The viability, T/C (second compound 0.1 µM, first compound 3.16 µM) was 23.7%, the viability, T/C (second compound 0.1 µM, first compound 10 µM) was 18.3% and the viability, T/C [3] was 89.2%. It also gave a viability, T/C [4] of 81.6%, a viability, T/C (second compound 0.316 µM, first compound 0.316 µM) of 52.1% and a viability, T/C (second compound 0.316 µM, first compound 1 µM) of 35.4%. For the same compound, the viability, T/C (second compound 0.316 µM, first compound 3.16 µM) was 22.4%, the viability, T/C (second compound 0.316 µM, first compound 10 µM) was 19.2% and the viability, T/C [5] was 78.3%. It also gave a viability, T/C [6] of 71.3%, a viability, T/C (second compound 1 µM, first compound 0.316 µM) of 41.6% and a viability, T/C (second compound 1 µM, first compound 1 µM) of 29.7%. The viability, T/C (second compound 1 µM, first compound 3.16 µM) was 20.3%, the viability, T/C (second compound 1 µM, first compound 10 µM) was 17.9% and the viability, T/C [7] was 19.1%. For the same compound, the viability, T/C [8] was 18.4%, the viability, T/C (second compound 3.16 µM, first compound 0.316 µM) was 18.8% and the viability, T/C (second compound 3.16 µM, first compound 1 µM) was 18.3%. The viability, T/C (second compound 3.16 µM, first compound 3.16 µM) was 15.5%, the viability, T/C (second compound 3.16 µM, first compound 10 µM) was 13.8% and the viability, T/C [9] was 1.63%. For the same compound, the viability, T/C [10] was 1.35%, the viability, T/C (second compound 10 µM, first compound 0.316 µM) was 0.89% and the viability, T/C (second compound 10 µM, first compound 1 µM) was 0.94%. The viability, T/C (second compound 10 µM, first compound 3.16 µM) was 0.76% and the viability, T/C (second compound 10 µM, first compound 10 µM) was 0.77%.
